Measurements taken from patent US20230151309A1, “PLANT-BASED HYDROALCOHOLIC FORMULATIONS FOR IMPROVING LIVER HEALTH” (priority 2021, published 2023).
Entries after “also recorded” stand apart in the source; their conditions may differ.

Key:
intestinal tissue = test: Intestinal tissue viability by MTT assay (HuDMOP); format: cell-based, human; details: 100 μL, 24 hr, % viable vs. vehicle control
Procedure: (§1) The model consisted of human 3D epidermal model (Epiltestinal tissue from MarTek) linked to HepG2 cells (Liver) linked by unidirectional simulated blood flow. Simulated blood consisted of saline with human serum albumin.
Diluted ethanol (EtOH) alone or a composition of the present invention diluted to the same level as the EtOH alone test are applied to the apical side of the intestine chamber at the start of the experiment. […] The health of the intestinal tissue was measured with a MTT assay. Pure EGCG was also applied as a control. Tissues were dosed with 100 μL of the solutions and were incubated at 37° C. with 5% CO2 for 24 hr. Cell viability was expressed at % viable vs. vehicle control. Data points represent mean±SEM of N=2 replicates.

[1] = EGCG kinetics in two-compartment HuDMOP (intestine to liver to perfusate), LC-MS/MS; format: in vitro ADME, human
Source text: The human dynamic multiple organ plate (HuDMOP) developed by IONTOX (U.S. Pat. No. 9,631,167 B2) was used for testing. This plate is an accepted and unique state-of-the-art in vitro platform for evaluating drugs and chemicals. The FDA recognizes such in vitro models that provide comparative information of relative toxicity between an FDA approved compound and a new submission or in vitro data that focuses on mechanism. The HuDMOP system allows collection of intestinal absorption data, pharmacokinetic data, safety, and efficacy in a single model and can feature up to 6 organ compartments. Flow between the compartments is controlled through selection of dialysis membrane appropriate for the relevant organ systems, pressures, and membrane areas. The HuDMOP system is also used to generate data to support efficacy claims for botanicals.
Simulated blood consisted of saline with human serum albumin.
Epigallocatechin gallate (EGCG) from the novel composition was used to track its intestinal permeability, its movement into simulated blood and delivery to the liver. EGCG content was measured by LC-MS/MS (FIG. 6).

[2] = EGCG level in the botanical-infused alcoholic composition by LC-MS/MS (EGCG stability); format: physicochemical; details: final alcoholic composition, pH below 4.65
Procedure: Intracellular ATP was expressed as % ATP vs. Vehicle Control. Data points represent mean±SEM of N=3 replicates.
The samples were tested by LC-MS/MS using a Waters Acquity UPLC system in-line with a Waters Xevo TO-S mass spectrometer via an electrospray interface. An EGCG powdered standard was purchased from Sigma-Aldrich. The EGCG standard was prepared as a 1 mg/mL solution in PBS containing 0.2% ascorbic acid and 0.005% EDTA to calculate the standard curve. EGCG was spiked into intestinal media at a 5% ratio of standard to media (% v/v). EGCG internal standard (IS) was prepared as a 200 ng/ml solution also using PBS containing 0.2% ascorbic acid and 0.005% EDTA. Ten μL of EGCG IS was added to 25 μL of EGCG standard, vortex mixed, and 2× extracted with 350 μL of ethyl acetate. […]
EGCG and samples of the alcoholic beverage composition were separated using a 1.0 mm×100 mm Waters HSS T3 column with 0.3% acetic acid/HO as mobile phase A and 0.3% acetic acid/acetonitrile as mobile. phase B. For gradient elution, initial B was 1%, increased to 95% Bat 2 minutes, 95% Bat 4 minutes, and back to 1% Bat 4.5 minutes. […] Data was analyzed using Waters Targetlynx application software and automatically exported as a CSV file for reporting.
EGCG was detected in the final alcoholic composition. […]

[3] = test system: Glutathione Reductase (GSR); details: liver cells, 12 and 24 hr post exposure
Source text: as §1
(§2) Total RNA from the liver cells was obtained following the 12 and 24 hr time points post exposure to look at specific gene expression (NQO1, HMOX1, GSR) that are part of a group that protect the cell from oxidative stress and inflammation. An increase in fold change >2 is typically considered biologically relevant.
RNA was extracted from liver cells using the RNeasy Mini kit along with Proteinase Kand DNase I digestion to remove proteins and gDNA. […] Total RNA was quantified using the NanoDrop 2000. The RNA obtained was used to measure the expression of the above target genes by RT-qPCR. […] TaqMan* fast virus 1-step master mix (Thermo Fisher) was used. One-Step RT-qPCR was performed using the QuantStudio 5 PCR Instrument from Thermo Fisher and by following the manufacturer's recommended cycling protocol. All primer/probe sets were obtained from Thermo Fisher.

Heme oxygenase-1 (HMOX1) = details: liver cells, 12 and 24 hr post exposure
Source text: as §1
Total RNA from the liver cells was obtained following the 12 and 24 hr time points post exposure to look at specific gene expression (NQO1, HMOX1, GSR) that are part of a group that protect the cell from oxidative stress and inflammation.
RNA was extracted from liver cells using the RNeasy Mini kit along with Proteinase Kand DNase I digestion to remove proteins and gDNA. DNase I was purchased from Qiagen. Total RNA was quantified using the NanoDrop 2000. The RNA obtained was used to measure the expression of the above target genes by RT-qPCR. […] TaqMan* fast virus 1-step master mix (Thermo Fisher) was used. One-Step RT-qPCR was performed using the QuantStudio 5 PCR Instrument from Thermo Fisher and by following the manufacturer's recommended cycling protocol. All primer/probe sets were obtained from Thermo Fisher.

[4] = test system: NADPH Quinone Dehydrogenase 1 (NQO1); details: liver cells, 12 and 24 hr post exposure
Source text: as §1, §2
RNA was extracted from liver cells using the RNeasy Mini kit along with Proteinase Kand DNase I digestion to remove proteins and gDNA. DNase I was purchased from Qiagen. Total RNA was quantified using the NanoDrop 2000. The RNA obtained was used to measure the expression of the above target genes by RT-qPCR. 10.10. TaqMan* fast virus 1-step master mix (Thermo Fisher) was used. One-Step RT-qPCR was performed using the QuantStudio 5 PCR Instrument from Thermo Fisher and by following the manufacturer's recommended cycling protocol. All primer/probe sets were obtained from Thermo Fisher.

Fa2N-4 cells = details: human, 24 h
Procedure: Maximum Tolerated Dose is indicated as the % EtOH where viability as assayed using ATP levels diminished to below 50%.
Samples of botanical-infused alcoholic composition were prepared as follows. The samples were diluted to in deionized water to bring the alcohol concentration down to 8%. […] Intracellular ATP was expressed as % ATP vs. Vehicle Control. Data points represent mean±SEM of N=3 replicates.
The samples were also diluted to 6 and 2% alcohol.

HepG2 liver cells = test: Reactive oxygen species (DCFDA/H2DCFDA Cellular ROS Assay Kit) in liver cells; format: cell-based; details: HepG2, 24 hours; ethanol at 2, 3 and 4%
Procedure: Reactive Oxygen Species were measured using the DCFDA/H2DCFDA Cellular ROS Assay Kit from Abeam.
Liver stress was measured by measuring the amount of reactive oxygen species (ROS) produced after exposure to the alcoholic composition. HepG2 liver cells were plated and grown overnight. […] Then the cells were exposed to the Test articles for 24 hours at 37° C. with 5% CO2. […] Amount of ROS was measured using the DCFDA/H2DCFDA Cellular ROS Assay Kit from Abeam.
Data are expressed as Fold Change vs. Negative Control. Bars represent mean±SEM of three replicate samples.

| GSR gene expression [3] | HMOX1 gene expression (Heme oxygenase-1 (HMOX1)) | NQO1 gene expression [4] | SMILES | health of the intestinal tissue (cell viability, MTT) (intestinal tissue) | time EGCG starts to appear in the lower basolateral chamber ([1]; after application of composition batch 1 to intestinal tissue) [h] | time EGCG appears in the liver ([1]; after applying composition batch 1 to the intestinal tissue) [h] | EGCG in perfusate after processing in the liver compartment ([1]; composition batch 1) | EGCG maximum concentration (Cmax) ([1]; composition batch 1, after passing the intestinal membrane) | time of EGCG peak in basolateral chamber ([1]; composition batch 1, amount constant until 24 hours) [h] | EGCG stability in the composition [2] | Maximum Tolerated Dose (ethanol causing 50% response in % ATP) (Fa2N-4 cells) [%] | increase in ROS, Fold Change vs. Negative Control (HepG2 liver cells) [fold] |
| --- | --- | --- | --- | --- | --- | --- | --- | --- | --- | --- | --- | --- |
|  |  |  | O=C(O[C@@H]1Cc2c(O)cc(O)cc2O[C@@H]1c1cc(O)c(O)c(O)c1)c1cc(O)c(O)c(O)c1 [EGCG, epigallocatechin gallate] | not affected; also recorded: no cytotoxic effect | 2 | 6 | remains in the perfusate | about 1400 ng/ml | 12 | stable |  |  |
| does not produce an increase | induces an increase | no increase | CCO [ethanol] | not affected |  |  |  |  |  |  | 8 |  |
|  |  |  | CC(C)(C)OO [positive control, Tert-butyl hydroperoxide] |  |  |  |  |  |  |  |  | 22 |
